Reference: patent US9969768B1 (KING SAUD UNIVERSITY, priority 2017, dated 2018)

How the values were obtained:
DPP-IV = target: T1, DPP-IV (Homo sapiens, UniProt P27487); assay: DPP-IV inhibition activity (fluorescence); assay type: biochemical; details: mean ± S.E.M., n = 6
T1 construct: purchased Sigma
Description: A […] reaction system containing DPP-IV (Sigma), a test compound, and 25 mmol/L 4-(2-hydroxyethyl)-1-piperazineethanesulfonic acid (HEPES) buffer (containing 140 mmol/L NaCl, 1% Bovine serum albumin (BSA) and 80 mmol/L MgCl2) was pre-incubated at room temperature for 10 minutes. The reaction was initiated by the addition of […], and the reaction mixture was then incubated at room temperature for 25-45 minutes. […] A negative control (no test compound) and a blank control (no enzyme) were run simultaneously. The test compounds were initially assayed in duplicate at a concentration of 10 mg/mL.

[1] = test system: alloxan-induced diabetic mice; assay: In vivo oral hypoglycemic activity, acute study; details: for % Change in SG: diabetic mice
Description: The percentage change in blood glucose levels in diabetic mice after oral administration of the test compounds, at a concentration of 200 μg/kg body weight, were determined at 2, 4, 6, and 24 hours.
The synthesized compounds were screened for hypoglycemic activity in vivo using the alloxan-induced diabetic mice model. For the acute study, animals were fasted overnight and the fasting blood serum glucose (SG) level was determined at 0 hours. Then the compounds were administered at a fixed dose of 200 μg/kg body weight orally (homogenized suspension in 0.5% carboxymethyl cellulose (CMC) with Tween 80). Animals in the vehicle group were given an equal amount of 0.5% CMC, while those in the control group were maintained as is. Blood samples were removed from all animals at 2, 4, 6 and 24 hours and percentage change in SG was calculated. See, Dunn, J. S., Letchie, N. G., “Experimental alloxan diabetes in the rat,” The Lancet 242(6265): 384-387 (1943); and Mourao R. H., Silva T. G., et al., “Synthesis and Biological Activity of Novel Acridinylidene and Benzylidene thiazolidinediones,” Eur. J. Med. Chem., 40: 1129-1133 (2005).

[2] = test system: alloxan-induced diabetic mice; assay: In vivo oral hypoglycemic activity, sub-acute study
Description: Study animals were fasted overnight, and the fasting SG levels calculated at 0 days. The test compounds were administered at a fixed dose of 200 μg/kg body weight orally (homogenized suspension in 0.5% CMC and permissible amounts of Tween 80) for 21 days at a fixed time. After 21 days, treatment was stopped and animals were left for a rest period of 7 days. Animals in the vehicle group were given an equal amount of 0.5% CMC, while those in the control group were maintained as is. During the study, blood samples were removed from all animals at 7, 14, 21 and 28 days, and the percentage change in SG was calculated. The data obtained were analyzed by one-way ANOVA followed by the Dunnett test. The results were expressed as mean±standard error of mean (SEM) for each group, while p<0.01 or p<0.05 was considered to be statistically significant. The percentage changes in blood glucose levels after oral administration, at 200 μg/kg body weight, were evaluated, and are reported in Table 5.

PPAR = PPAR agonist activity, PPRE-Luc dual luciferase reporter in HepG2 cells; assay type: cell-based; details: mean ± S.E.M., n = 6
Description: HepG2 cells were cultured in low glucose Dulbecco's Modified Eagle's medium (DMEM) supplemented with 100 U/mL streptomycin and penicillin. One day prior to transfection, the cells were plated in 96-well plates at 1.5×10^4 cells per well. After reaching 70% confluence, plasmid peroxisome proliferator responsive element-luciferase (PPRE-Luc) with firefly luciferase reporter gene and the control plasmid phRL-TK with renilla luciferase reporter gene were transfected into the cells. After 24 hours, the medium was replaced with either fresh medium (negative control) or fresh medium containing a test compound (10 mg/mL) or pioglitazone (positive control). Non-transfected cells were used as blank. After a further 24 hours, the expression of luciferases was measured using the Dual Luciferase Reporter Gene Assay Kit (Promega). The percent activation (T %) was calculated as [(L1sample−L1Blank)/(L1Negative−L1Blank)]/[(L2Sample−L2Blank)/(L2Negative−L2Blank)]×100%, where L1 represents the value for the value for firefly luciferase and L2 the value for Renilla luciferase. Xing-hua Z., Jufang Y., LiFan, W., Dacheng Y., “Synthesis and antidiabetic activity of β-acetamido ketones,” Acta Pharmaceutica Sinica 1(2):100-105 (2011).

[3] = target: α-Glucosidase from Saccharomyces cerevisiae; assay: α-Glucosidase inhibitory activity (chromogenic method); assay type: biochemical; details: mean ± S.E.M., n = 6
Description: The α-Glucosidase inhibitory activity of each compound was determined according to the chromogenic method described by Chapdelaine et al with slight modifications. See, Chapdelaine P., Tremblay R. R., Dube, J. Y., “P-Nitrophenol-alpha-D-gluco-pyranoside as substrate for measurement of maltase activity in human semen,” Clin. Chem., 24: 208-211 (1978). α-Glucosidase from Saccharomyces cerevisiae and substrate solution […] (PNPG) were prepared with 0.1 mol L^−1 of Na-phosphate buffer (pH 6.8). The inhibitors were reconstituted in […] phosphate buffer in a 96-well microplate and incubated with […] α-Glucosidase at 37° C. for 15 minutes, and then 30 μL substrate was added. After incubation with substrate for 5 minutes, release of p-nitrophenol was measured at 405 nm by spectrophotometry. Percentage of enzyme inhibition was calculated according to {1−(Asample−Ablank)/Acontrol}×100, where Asample represents absorbance of test samples, Acontrol represents absorbance of solution without sample, and A blank represents absorbance in presence of solution without substrate.

[4] = 2 h after 200 μg/kg body weight orally
[5] = 4 h after 200 μg/kg body weight orally
[6] = 6 h after 200 μg/kg body weight orally
[7] = 24 h after 200 μg/kg body weight orally
[8] = 7 day, 200 μg/kg body weight orally daily
[9] = 7 days rest period after 21 days of treatment, 200 μg/kg orally
[10] = 14 day, 200 μg/kg body weight orally daily
[11] = 21 day, 200 μg/kg body weight orally daily

T1 sequence (P27487 whole entry, species assumed): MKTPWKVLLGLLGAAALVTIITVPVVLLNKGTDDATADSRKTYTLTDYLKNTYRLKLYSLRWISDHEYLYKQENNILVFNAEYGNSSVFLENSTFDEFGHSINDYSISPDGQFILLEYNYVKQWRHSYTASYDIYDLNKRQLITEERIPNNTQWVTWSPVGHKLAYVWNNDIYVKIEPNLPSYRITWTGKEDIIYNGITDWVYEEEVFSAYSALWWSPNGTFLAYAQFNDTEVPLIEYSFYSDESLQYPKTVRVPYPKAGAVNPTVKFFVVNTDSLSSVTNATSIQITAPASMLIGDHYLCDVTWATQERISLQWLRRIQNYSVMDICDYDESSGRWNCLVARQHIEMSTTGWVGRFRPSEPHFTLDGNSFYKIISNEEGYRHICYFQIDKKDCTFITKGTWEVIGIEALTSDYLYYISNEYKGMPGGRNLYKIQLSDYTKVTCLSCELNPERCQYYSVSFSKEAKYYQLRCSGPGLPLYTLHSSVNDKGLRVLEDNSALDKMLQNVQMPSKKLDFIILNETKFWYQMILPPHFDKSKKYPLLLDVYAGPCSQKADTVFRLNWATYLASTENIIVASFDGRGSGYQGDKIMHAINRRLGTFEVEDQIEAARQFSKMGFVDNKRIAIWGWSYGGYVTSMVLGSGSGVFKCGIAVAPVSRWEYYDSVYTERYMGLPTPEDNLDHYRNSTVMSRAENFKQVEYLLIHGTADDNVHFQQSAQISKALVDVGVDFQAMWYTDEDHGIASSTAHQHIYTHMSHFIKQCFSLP

Molecule | IC50 (DPP-IV) | % Change in SG [1, 4] | % Change in SG [1, 5] | % Change in SG [1, 6] | % Change in SG [1, 7] | % Change in SG [2, 8] | % Change in SG [2, 9] | % Change in SG [2, 10] | % Change in SG [2, 11] | IC50 (PPAR) | IC50 [3] | time of maximum activity post-administration ([1]; acute study, 200 μg/kg orally)
C[C@H]1O[C@H](O[C@H]2[C@H](O)[C@@H](O)[C@@H](O[C@H]3[C@H](O)[C@@H](O)C(O)O[C@@H]3CO)O[C@@H]2CO)[C@H](O)[C@@H](O)[C@@H]1N[C@H]1C=C(CO)[C@@H](O)[C@H](O)[C@H]1O (stereo partly shown) [Acarbose, reference compound] | 176 µM | −29.23% | −27.87% | −20.17% | −22.39% | −18.29% | −27.65% | −24.55% | −31.78% | – | – | –
COC(=O)[C@]12CCC(C)(C)C[C@H]1C1=CC[C@@H]3[C@@]4(C)CCC(=O)C(C)(C)[C@@H]4CC[C@@]3(C)[C@]1(C)CC2 [Compound 1, 3-oxo-oleanolic acid methyl ester] | 0.091 ± 0.0009 µM | −69.40% | −71.89% | −79.32% | −73.29% | −59.76% | −81.20% | −68.78% | −84.65% | 0.12 ± 0.004 µM | 1.7 ± 0.03 µM | –
CC1(C)CC[C@]2(C(=O)O)CC[C@]3(C)C(=CC[C@@H]4[C@@]5(C)CC[C@H](O)C(C)(C)[C@@H]5CC[C@]43C)[C@@H]2C1 [Oleanolic acid, reference compound] | – | −40.79% | −48.66% | −52.17% | −51.01% | −10.56% | −30.32% | −20.35% | −37.68% | 14.9 µM | – | –
CCc1ccc(CCOc2ccc(CC3SC(=O)NC3=O)cc2)nc1 (stereo not shown) [Pioglitazone, reference compound] | – | −32.16% | −22.45% | −12.34% | −13.28% | −11.23% | −43.45% | −18.34% | −50.39% | – | – | 2 h
methyl-2-{4-pyridylidene}-3-oxo-18β-Olean-12-en-28-oate [Compound 2] | – | −74.70% | −81.67% | −84.30% | −80.78% | −62.35% | −86.25% | −71.78% | −87.54% | – | – | –
methyl-2-{(4-pyridyl)-N-morpholinylmethane}-3-oxo-18β-olean-12-en-28-oate [Compound 4] | 0.0044 ± 0.0005 µM | −78.88% | −85.89% | −90.00% | −88.88% | −67.90% | −86.43% | −74.78% | −90.87% | 0.0078 ± 0.0005 µM | 0.087 ± 0.001 µM | –
methyl-2-{N-(morpholino) methane}-3β-hydroxy-3α-phenyl-18β-Olean-12-ene-28-oate [Compound 6] | – | −73.60% | −80.74% | −82.33% | −77.80% | −61.68% | −85.89% | −70.54% | −86.45% | – | – | –
methyl-2-{N-(morpholino)methane}-3-oxo-18β-olean-12-ene-28-oate [Compound 5] | – | −70.60% | −79.01% | −80.43% | −75.41% | −60.89% | −84.29% | −70.53% | −85.45% | – | – | –
methyl-2-{phenyl-(4-pyridyl)-methane}-3-oxo-18β-olean-12-en-28-oate [Compound 3] | – | −75.78% | −82.76% | −85.74% | −79.67% | −66.76% | −83.56% | −73.65% | −89.76% | – | 0.123 ± 0.004 µM | –
